The text below walks through data of ChEMBL document CHEMBL3994622, “Design and synthesis of new RAF kinase-inhibiting antiproliferative quinoline derivatives. Part 2: Diarylurea derivatives” (Eur J Med Chem, 2017).

Holding throughout (type): functional
The test system of one experiment is IGROV-1. Put plainly: Growth inhibition of human IGROV1 cells assessed as cell growth at 100 uM incubated for 48 hrs by sulforhodamine B assay relative to control. The settings on record: IGROV-1, 48 h, read-out: Activity.
The next experiment concerns Malme-3M. Put plainly: Growth inhibition of human MALME-3M cells assessed as cell growth at 1 uM incubated for 48 hrs by sulforhodamine B assay relative to control. The settings on record: read-out: Activity. (In general: In SRB staining, fixed cells bind dye roughly in proportion to their protein.)
The subject of a further experiment is SW-620. Put plainly: Growth inhibition of human SW620 cells assessed as cell growth at 0.1 uM incubated for 48 hrs by sulforhodamine B assay relative to control. The settings on record: SW-620, 48 h, read-out: Activity.
In experiment [1] the test system is A549. Put plainly: Growth inhibition of human A549/ATCC cells assessed as cell growth at 0.01 uM incubated for 48 hrs by sulforhodamine B assay relative to control. The settings on record: A549, 48 h, read-out: Activity.
Another experiment concerns NCI-H226. Nature of the experiment: Growth inhibition of human NCI-H226 cells assessed as cell growth at 100 uM incubated for 48 hrs by sulforhodamine B assay relative to control. To be noted: NCI-H226, 48 h, read-out: Activity.
The test system of another experiment is K562. Put plainly: Growth inhibition of human K562 cells assessed as cell growth at 0.01 uM incubated for 48 hrs by sulforhodamine B assay relative to control. To be noted: K562, 48 h, read-out: Activity.
Another experiment concerns MDA-MB-231. Put plainly: Growth inhibition of human MDA-MB-231 cells assessed as cell growth at 100 uM incubated for 48 hrs by sulforhodamine B assay relative to control. To be noted: MDA-MB-231, 48 h, read-out: Activity.
The subject of another experiment is SF-268. Put plainly: Growth inhibition of human SF268 cells assessed as cell growth at 10 uM incubated for 48 hrs by sulforhodamine B assay relative to control. To be noted: SF-268, 48 h, read-out: Activity.
Experiment [2] relates to KM12. Nature of the experiment: Growth inhibition of human KM12 cells assessed as cell growth at 1 uM incubated for 48 hrs by sulforhodamine B assay relative to control. The settings on record: KM12, 48 h, read-out: Activity.
Experiment [3] concerns A549. Put plainly: Growth inhibition of human A549/ATCC cells assessed as cell growth at 1 uM incubated for 48 hrs by sulforhodamine B assay relative to control. The settings on record: A549, 48 h, read-out: Activity.
The next experiment concerns NCI-H23. Nature of the experiment: Growth inhibition of human NCI-H23 cells assessed as cell growth at 0.1 uM incubated for 48 hrs by sulforhodamine B assay relative to control. The settings on record: NCI-H23, 48 h, read-out: Activity.
In a further experiment the test system is ACHN. Nature of the experiment: Growth inhibition of human ACHN cells assessed as cell growth at 10 uM incubated for 48 hrs by sulforhodamine B assay relative to control. To be noted: read-out: Activity.
For a further experiment, the system named is MCF7. Put plainly: Growth inhibition of human MCF7 cells assessed as cell growth at 100 uM incubated for 48 hrs by sulforhodamine B assay relative to control. The settings on record: MCF7, 48 h, read-out: Activity.
For a further experiment, the system named is SNB-19. Nature of the experiment: Growth inhibition of human SNB19 cells assessed as cell growth at 0.1 uM incubated for 48 hrs by sulforhodamine B assay relative to control. To be noted: SNB-19, 48 h, read-out: Activity.
The subject of experiment [4] is NCI/ADR-RES. Nature of the experiment: Growth inhibition of human NCI/ADR-RES cells assessed as cell growth at 0.1 uM incubated for 48 hrs by sulforhodamine B assay relative to control. To be noted: read-out: Activity.
The next experiment relates to RPMI-8226. Nature of the experiment: Growth inhibition of human RPMI8226 cells assessed as cell growth at 100 uM incubated for 48 hrs by sulforhodamine B assay relative to control. To be noted: RPMI-8226, 48 h, read-out: Activity.
For experiment [5], the system named is 786-0. Nature of the experiment: Growth inhibition of human 786-0 cells assessed as cell growth at 0.01 uM incubated for 48 hrs by sulforhodamine B assay relative to control. To be noted: 786-0, 48 h, read-out: Activity.
Another experiment deals with BT-549. Put plainly: Growth inhibition of human BT549 cells assessed as cell growth at 1 uM incubated for 48 hrs by sulforhodamine B assay relative to control. To be noted: BT-549, 48 h, read-out: Activity.
Another experiment has as its system NCI-H522. Nature of the experiment: Growth inhibition of human NCI-H522 cells assessed as cell growth at 0.01 uM incubated for 48 hrs by sulforhodamine B assay relative to control. To be noted: NCI-H522, 48 h, read-out: Activity.
In another experiment the test system is HL-60(TB). Nature of the experiment: Growth inhibition of human HL-60(TB) cells assessed as cell growth at 100 uM incubated for 48 hrs by sulforhodamine B assay relative to control. The settings on record: HL-60, 48 h, read-out: Activity.
Another experiment has as its system HOP-92. Put plainly: Growth inhibition of human HOP92 cells assessed as cell growth at 0.1 uM incubated for 48 hrs by sulforhodamine B assay relative to control. To be noted: HOP-92, 48 h, read-out: Activity.
The subject of experiment [6] is CAKI-1. Put plainly: Growth inhibition of human Caki1 cells assessed as cell growth at 0.3 uM incubated for 48 hrs by sulforhodamine B assay relative to control. To be noted: CAKI-1, 48 h, read-out: Activity.
In another experiment the test system is NCI-H460. Put plainly: Growth inhibition of human NCI-H460 cells assessed as cell growth at 0.003 uM incubated for 48 hrs by sulforhodamine B assay relative to control. To be noted: NCI-H460, 48 h, read-out: Activity.
Experiment [7] concerns HCT-116. Put plainly: Growth inhibition of human HCT116 cells assessed as cell growth at 0.03 uM incubated for 48 hrs by sulforhodamine B assay relative to control. The settings on record: HCT-116, 48 h, read-out: Activity.
The next experiment concerns COLO 205. Nature of the experiment: Growth inhibition of human COLO205 cells assessed as cell growth at 0.003 uM incubated for 48 hrs by sulforhodamine B assay relative to control. To be noted: COLO 205, 48 h, read-out: Activity.
In experiment [8] the test system is NCI/ADR-RES. Put plainly: Growth inhibition of human NCI/ADR-RES cells assessed as cell growth at 0.3 uM incubated for 48 hrs by sulforhodamine B assay relative to control. To be noted: read-out: Activity.
In experiment [9] the test system is CAKI-1. Put plainly: Growth inhibition of human Caki1 cells assessed as cell growth at 30 uM incubated for 48 hrs by sulforhodamine B assay relative to control. To be noted: CAKI-1, 48 h, read-out: Activity.
Experiment [10] has as its system KM12. Nature of the experiment: Growth inhibition of human KM12 cells assessed as cell growth at 30 uM incubated for 48 hrs by sulforhodamine B assay relative to control. To be noted: KM12, 48 h, read-out: Activity.
In experiment [11] the test system is 786-0. Put plainly: Growth inhibition of human 786-0 cells assessed as cell growth at 0.3 uM incubated for 48 hrs by sulforhodamine B assay relative to control. To be noted: 786-0, 48 h, read-out: Activity.
A further experiment concerns SF-295. Nature of the experiment: Growth inhibition of human SF295 cells assessed as cell growth at 0.3 uM incubated for 48 hrs by sulforhodamine B assay relative to control. The settings on record: SF-295, 48 h, read-out: Activity.
The subject of a further experiment is M14. Put plainly: Growth inhibition of human M14 cells assessed as cell growth at 0.003 uM incubated for 48 hrs by sulforhodamine B assay relative to control. The settings on record: M14, 48 h, read-out: Activity.
The subject of experiment [12] is HCT-116. Put plainly: Growth inhibition of human HCT116 cells assessed as cell growth at 3 uM incubated for 48 hrs by sulforhodamine B assay relative to control. To be noted: HCT-116, 48 h, read-out: Activity.
For a further experiment, the system named is SNB-75. Put plainly: Growth inhibition of human SNB75 cells assessed as cell growth at 3 uM incubated for 48 hrs by sulforhodamine B assay relative to control. The settings on record: SNB-75, 48 h, read-out: Activity.
A further experiment has as its system T47D. Nature of the experiment: Growth inhibition of human T47D cells assessed as cell growth at 0.03 uM incubated for 48 hrs by sulforhodamine B assay relative to control. To be noted: read-out: Activity.

Take `COc1cc2cc(Oc3ccc(NC(=O)Nc4ccc(Cl)c(Cl)c4)cc3)c(C)nc2cc1OC`: the growth at 100 µM in the experiment on IGROV-1 was -15%; in the experiment with NCI-H226 it was -85%; in the experiment with MDA-MB-231 it was -100%; in the experiment on MCF7, -50%; with RPMI-8226, -47%; in the experiment on HL-60(TB), -41%. The growth at 1 µM was 109% with Malme-3M, 93% with KM12 [2], 66% in the experiment on A549 [3] and 78% in the experiment on BT-549. Also, the growth at 0.1 µM in the experiment with SW-620 was found to be 101%; in the experiment on NCI-H23 it was 93%; in the experiment with SNB-19, 93%; in the experiment with NCI/ADR-RES [4], 100%; in the experiment on HOP-92 it was 92%. For the same molecule, the growth at 0.01 µM with A549 [1] was determined as 96%; in the experiment on K562, 108%; in the experiment with 786-0 [5], 83%; in the experiment with NCI-H522, 99%. For the same molecule, the results for the growth at 10 µM in the experiment on SF-268 and in the experiment with ACHN were 44% and 5%, respectively.

As for `COc1cc2cc(Oc3ccc(NC(=O)Nc4ccc(Cl)c(C(F)(F)F)c4)cc3)c(C)nc2cc1OC`, the growth at 0.3 µM in the experiment with CAKI-1 [6] was determined as 87%; with NCI/ADR-RES [8] it was 94%; with 786-0 [11] it was 93%; with SF-295 it was 93%. Besides, the values for the growth at 0.003 µM with NCI-H460, with COLO 205 and in the experiment with M14 were 106%, 97% and 97%, respectively. Moreover, the growth at 0.03 µM in the experiment with HCT-116 [7] came to 91%; in the experiment with T47D it was 94%. Further, the growth at 30 µM in the experiment on CAKI-1 [9] is -55%; in the experiment on KM12 [10], -84%. For the same molecule, the figures for the growth at 3 µM in the experiment on HCT-116 [12] and in the experiment with SNB-75 were 7% and 10%, respectively.

`COc1cc2cc(Oc3ccc(NC(=O)Nc4cc(C(F)(F)F)cc(C(F)(F)F)c4)cc3)c(C)nc2cc1OC`: the growth at 100 µM in the experiment with IGROV-1 was -63%; with NCI-H226 it was -52%; in the experiment with MDA-MB-231 it was -83%; in the experiment with MCF7, -73%; with RPMI-8226, -34%; in the experiment with HL-60(TB), -56%. Further, the growth at 1 µM in the experiment with Malme-3M was found to be 54%; in the experiment on KM12 [2], 48%; in the experiment on A549 [3], 65%; in the experiment on BT-549, 86%. In addition, the growth at 0.1 µM in the experiment with SW-620 stood at 100%; with NCI-H23 it was 96%; with SNB-19, 97%; with NCI/ADR-RES [4], 96%; with HOP-92 it was 90%. Besides, the growth at 0.01 µM in the experiment with A549 [1] amounted to 101%; with K562 it was 110%; with 786-0 [5] it was 89%; with NCI-H522, 92%. Further, the growth at 10 µM with SF-268 was -61%; in the experiment on ACHN, -57%.

Regarding `Cc1nc2cc(O)c(O)cc2cc1Oc1ccc(NC(=O)Nc2ccc(Cl)c(Cl)c2)cc1`, the growth at 0.3 µM in the experiment on CAKI-1 [6] came to 95%; in the experiment on NCI/ADR-RES [8] it was 97%; with 786-0 [11] it was 95%; with SF-295, 89%. Also, the growth at 0.003 µM with NCI-H460 was found to be 102%; in the experiment with COLO 205 it was 107%; in the experiment with M14, 96%. Moreover, the growth at 0.03 µM was determined as 89% in the experiment with HCT-116 [7] and 102% with T47D. For the same molecule, the results for the growth at 30 µM in the experiment on CAKI-1 [9] and in the experiment on KM12 [10] were -2% and -1%, respectively. In addition, the figures for the growth at 3 µM with HCT-116 [12] and in the experiment on SNB-75 were 42% and 83%, respectively.
